Results taken from article PMC8698299, “Targeting Mycobacterial F-ATP Synthase C-Terminal α Subunit Interaction Motif on Rotary Subunit γ” (Antibiotics, 2021).

Biological target: T1, F-ATP synthase (subunit γ, site proposed by docking) (Mycolicibacterium smegmatis, UniProt A0R201)
T1 construct: gene atpG; Recombinant M. smegmatis WT F-ATP synthase, purified and reconstituted into proteoliposomes; with other F-ATP synthase subunits (α3:β3:γ:δ:ε:a:b:b’:c9), in particular subunit α
Test: ATP synthesis by reconstituted recombinant MsF-ATP synthase, continuous luciferase assay (also IMV ATP synthesis, IC50 […])
Format: biochemical

T1 sequence (A0R201 2-307): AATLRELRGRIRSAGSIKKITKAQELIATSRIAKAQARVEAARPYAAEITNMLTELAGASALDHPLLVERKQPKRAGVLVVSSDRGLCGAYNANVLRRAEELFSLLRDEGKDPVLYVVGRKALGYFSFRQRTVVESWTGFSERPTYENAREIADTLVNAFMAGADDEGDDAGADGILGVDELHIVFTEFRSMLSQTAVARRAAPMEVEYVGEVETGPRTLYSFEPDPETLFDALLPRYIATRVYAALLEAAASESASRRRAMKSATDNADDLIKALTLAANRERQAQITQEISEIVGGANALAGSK

COc1cc(NC(=O)C2=C(C)OCCS2)c(Cl)cc1C(=O)NCCCN1CCCC1=O [AlMF1, N-(2-chloro-5-methoxy-4-((3-(2-oxopyrrolidin-1-yl)propyl)carbamoyl)phenyl)-2-methyl-5,6-dihydro-1,4-oxathiine-3-carboxamide] was tested. Which inhibition at 50 µM did it give?
Its inhibition at 50 µM is 71%.
